Test: Precipitation of various stilbene compounds by γ-CD: concentration in supernatant (HPLC)
Assay type: physicochemical
Description: γ-CD solutions of six different concentrations (42.78, 85.56, 106.95, 128.33, 171.11, 213.89 mg/mL) were prepared.
The mixed solutions were stirred under light shielding conditions at 25° C. for 24 hours. Subsequently, they were subjected to centrifugation at 15,000 rpm at 25° C. for 5 minutes to collect the supernatants. These supernatants were further subjected to centrifugation using the same conditions to obtain another batch of supernatants.
Resveratrol (denoted by “Res” in the figure), rhapontigenin (denoted by “Rha” in the figure), and isorhapontigenin (denoted by “Isorha” in the figure) were used as the stilbene compounds to prepare respective solutions of the stilbene compounds. To each solution, γ-CD was added. Precipitation of these stilbene compounds by γ-CD and the relation between the concentration of γ-CD and the precipitation of the stilbene compounds were examined. Procedures for the preparation of the solutions and the measurement using HPLC were similar to those described in the above Example 1(3).

For `COc1ccc(/C=C/c2cc(O)cc(O)c2)cc1O` [Rha, rhapontigenin], the “Concentration of Rha in liquid” value (γ-CD 0 mg/mL final) was 97000 ng/mL, the “Concentration of Rha in liquid” value (γ-CD 12.8 mg/mL final) was 60000 ng/mL and the “Concentration of Rha in liquid” value (γ-CD 25.7 mg/mL final) was 20000 ng/mL. The “Concentration of Rha in liquid” value (γ-CD 32.1 mg/mL final) was 17000 ng/mL, the “Concentration of Rha in liquid” value (γ-CD 38.5 mg/mL final) was 13000 ng/mL and the “Concentration of Rha in liquid” value (γ-CD 51.3 mg/mL final) was no more than 10000 ng/mL. The “Concentration of Rha in liquid” value (γ-CD 64.2 mg/mL final) was no more than 10000 ng/mL.

With `Oc1ccc(/C=C/c2cc(O)cc(O)c2)cc1` [Res, Resveratrol] the “Concentration of Res in liquid” value (γ-CD 0 mg/mL final) was 28000 ng/mL, the “Concentration of Res in liquid” value (γ-CD 12.8 mg/mL final) was 20000 ng/mL and the “Concentration of Res in liquid” value (γ-CD 25.7 mg/mL final) was 12000 ng/mL. For the same compound, the “Concentration of Res in liquid” value (γ-CD 32.1 mg/mL final) was 10000 ng/mL, the “Concentration of Res in liquid” value (γ-CD 38.5 mg/mL final) was 8200 ng/mL and the “Concentration of Res in liquid” value (γ-CD 51.3 mg/mL final) was 5800 ng/mL. The “Concentration of Res in liquid” value (γ-CD 64.2 mg/mL final) was 3700 ng/mL.

With `COc1cc(/C=C/c2cc(O)cc(O)c2)ccc1O` [Isorha, isorhapontigenin] the “Concentration of Isorha in liquid” value (γ-CD 0 mg/mL final) was 190000 ng/mL, the “Concentration of Isorha in liquid” value (γ-CD 12.8 mg/mL final) was 0 ng/mL and the “Concentration of Isorha in liquid” value (γ-CD 25.7 mg/mL final) was 0 ng/mL. The “Concentration of Isorha in liquid” value (γ-CD 32.1 mg/mL final) was 0 ng/mL, the “Concentration of Isorha in liquid” value (γ-CD 38.5 mg/mL final) was 0 ng/mL and the “Concentration of Isorha in liquid” value (γ-CD 51.3 mg/mL final) was 0 ng/mL. For the same compound, the “Concentration of Isorha in liquid” value (γ-CD 64.2 mg/mL final) was 0 ng/mL.

Source: US10730815B2, “Method of producing purified stilbene compounds” (MORINAGA & CO., LTD., priority 2014, dated 2020)
